In patent US11530217B1, “Antitubercular compounds” (priority 2022, dated 2022) one finds MIC data, which are given here for ten compounds.

SMILES strings stand for the structures. Converted amounts (≈) assume the structure as drawn.

For the first assay, the system named is susceptible H37Rv MTB strain. Briefly: Resazurin Microplate Assay (REMA), anti-tubercular activity, H37Rv. The class given is cell-based. The note with it: Mycobacterium tuberculosis, 192 h; in vitro, REMA, susceptible H37Rv MTB strain, 8 days incubation; read-out: MIC (μg/mL) H37Rv. In general terms: Alamar Blue is a resazurin reagent that responds to reducing activity.
As for `CCOC(=O)c1cc(C(=O)c2ccc(Cl)cc2)n2cc(C)cc(C)c12` [Compound 5c, Ethyl 3-(4-chlorobenzoyl)-6,8-dimethylindolizine-1-carboxylate], the MIC stood at 0.5 µg/mL (≈ 1.41 µM).

`COC(=O)c1c(C(=O)OC)c2c(C)cc(C)cn2c1C(=O)c1ccc(Cl)cc1` [Compound 5d, Dimethyl 3-(4-chlorobenzoyl)-6,8-dimethylindolizine-1,2-dicarboxylate]: the MIC came to 8 µg/mL (≈ 20 µM).

In the case of `COC(=O)c1c(C(=O)OC)c2c(C)cc(C)cn2c1C(=O)c1ccc(C#N)cc1` [Compound 5l, Dimethyl 3-(4-cyanobenzoyl)-6,8-dimethylindolizine-1,2-dicarboxylate], the MIC came to 4 µg/mL (≈ 10.2 µM).

Still in this assay, the particulars now being: Mycobacterium tuberculosis, H37RV, 192 h, read-out: MIC (μg/mL) H37Rv.
For the compound `COC(=O)c1c(C(=O)OC)c2c(C)cc(C)cn2c1C(=O)c1ccc(OC)cc1` [Compound 5b, Dimethyl 3-(4-methoxybenzoyl)-6,8-dimethylindolizine-1,2-dicarboxylate], the MIC turned out to be 4 µg/mL (≈ 10.1 µM).

Take `CCOC(=O)c1cc(C(=O)c2ccc(F)cc2)n2cc(C)cc(C)c12` [Compound 5g, Ethyl 3-(4-fluorobenzoyl)-6,8-dimethylindolizine-1-carboxylate]: the MIC turned out to be 4 µg/mL (≈ 11.8 µM).

Consider `CCOC(=O)c1cc(C(=O)c2ccccc2[N+](=O)[O-])n2cc(C)cc(C)c12` [Compound 5h, Ethyl 6,8-dimethyl-3-(2-nitrobenzoyl)indolizine-1-carboxylate], for which the MIC came out at 4 µg/mL (≈ 10.9 µM).

`CCOC(=O)c1cc(C(=O)c2cc(C(F)(F)F)cc(C(F)(F)F)c2)n2cc(C)cc(C)c12` [Compound 5i, Ethyl 3-(3,5-bis(trifluoromethyl)benzoyl)-6,8-dimethylindolizine-1-carboxylate]: the MIC was 4 µg/mL (≈ 8.75 µM).

Consider `CCOC(=O)c1cc(C(=O)c2ccc(C#N)cc2)n2cc(C)cc(C)c12` [Compound 5j, Ethyl 3-(4-cyanobenzoyl)-6,8-dimethylindolizine-1-carboxylate], for which the MIC was determined as 0.5 µg/mL (≈ 1.44 µM).

In the case of `CCOC(=O)c1cc(C(=O)c2ccc(C)cc2)n2cc(C)cc(C)c12` [Compound 5k, Ethyl 6,8-dimethyl-3-(4-methylbenzoyl)indolizine-1-carboxylate], the MIC came out at 0.5 µg/mL (≈ 1.49 µM).

Consider `COC(=O)c1c(C(=O)OC)c2c(C)cc(C)cn2c1C(=O)c1ccc(C)cc1` [Compound 5m, Dimethyl 6,8-dimethyl-3-(4-methylbenzoyl)indolizine-1,2-dicarboxylate], for which the MIC stood at 0.25 µg/mL (≈ 0.659 µM).
